# Legend:
# [1] = system: bacteria that are part of the background flora of raw meat; test: Antimicrobial activity of compounded films (beef loins in heat-sealed package); type: cell-based
# Description: Two beef loins from a slaughterhouse were tested in a heat-sealed package simulating food packaging. The linear low density polyethylene film was compounded with 1% w/w LAE lactate biocidal salt of the invention. The log colony forming units (“CFU”) reduction values for bacteria that are part of the background flora of raw meat for both samples are 42 days indicate that there is a release of the salt of the invention from the polyethylene film to the surrounding beef surfaces.
# [2] = system: yeast cultures and A. niger; test: Food-grade preservation test (aloe vera gel challenge); type: cell-based; conditions: for Log Reduction Values, day 0: day 0, initial challenge 7 logs; for Log Reduction Values, day 0 / Log Reduction Values, day 2 / Log Reduction Values, day 7 / Log Reduction Values, day 14: aloe vera gel pH 4-4.5; for Log Reduction Values, day 0 / Log Reduction Values, day 2 / Log Reduction Values, day 7 / Log Reduction Values, day 14 / Log Reduction Values, day 21 / Log Reduction Values, day 28 / Log Reduction Values, day 35 / Log Reduction Values, day 42: LAE-HCl 1725 ppm, LAE-lactate 1500 ppm, lactic acid 1500 ppm; for Log Reduction Values, day 21: day 21 (re-challenge of 7 logs at day 21); for Log Reduction Values, day 28: day 28 (re-challenges of 7 logs at day 21 and day 28); for Log Reduction Values, day 35: day 35, after the second re-challenge; for Log Reduction Values, day 42: day 42, after two re-challenges
# Description: Aloe vera gel was prepared as a 50% dilution and dispensed as 20 g per container. Inoculum was prepared as 48 hour yeast cultures in tripticase soy broth and A. niger suspension. The inoculum was pooled and 100 μl added to each container. The preservatives were prepared as 1% solutions and added to each pre-labeled container. The samples were well mixed and stored. Recoveries were carried out at selected intervals (1:10 dilutions plated with sabourad dextrose agar. Pre-labeled plates were incubated at 25-30° C. for 48-72 hours; the pH of the samples was in the range of 4-4.5. The plates were removed from incubation, counted cfu recorded and converted to log reduction values.
# Thereafter, re-challenges of 7 logs each were made at day 21 and day 28.
# [3] = system: microbes such as bacteria, fungi and yeasts; conditions: general statement, no test described; cited from earlier work
# [4] = system: naturally-occurring aerobic bacteria of beef purge; test: Beef purge test; type: cell-based; conditions: for Avg. CFU/g / % Reduction: 48 hours, refrigerated, 5% w/w (0.5 g in 10 ml purge); for % Reduction: vs control
# Description: Two beef tenderloins containing a large quantity of purge (i.e., liquid surrounding raw meats; meat soaker pads were used to trap such liquids to the extent possible) were purchased at a local store. The purge was isolated from the packages and transferred to a series of test tubes and 10 ml of purge were placed in each test tube. To the test tubes was added 0.5 g of either LAE hydrochloride or LAE mono-laurate salts. The samples were mixed in a vortex mixer and serial dilutions were then plated on petrifilm for readings at time zero. The test tubes were then placed in the refrigerator and were again plated at 24 hours and 48 hours. The beef purge contained naturally-occurring aerobic bacteria. The goal is to have >99% reduction of the bacteria after 48 hours. LAE hydrochloride was tested at 0.5 g/10 ml w/v. […] Note that LAE-monolaurate contains about 66% of the active LAE cation.
# [5] = system: Staphylococcus aureus; test: Antimicrobial activity of LAE laurate, minimum inhibitory concentration on inoculated soya agar plates; type: cell-based; conditions: Staphylococcus aureus (Gram positive), 37° C., 48 hours, salt dissolved in 1,2-pentanediol
# Description: (§1) 0.1 g of N^α-lauroyl-L-arginine ethyl ester laurate (LAE laurate) was dissolved in 100 g of 1,2-pentanediol so as to provide a solution containing 1,000 parts per million of the salt. The solution was then applied to soya agar plates which had been previously inoculated with the bacteria indicated below and subsequently incubated at 37° C. for 48 hours.
# [6] = system: Bacillus subtilus; test: as above; type: cell-based; conditions: Bacillus subtilus (Gram positive), 37° C., 48 hours, salt dissolved in 1,2-pentanediol
# Description: as §1
# [7] = system: Enterobacter aerogenes; test: as above; type: cell-based; conditions: Enterobacter aerogenes (Gram negative), 37° C., 48 hours, salt dissolved in 1,2-pentanediol
# Description: as §1
# [8] = day 42, film compounded with 1% w/w salt, vs. control
compound,measurement,setting,value
CC(O)C(=O)O.CCCCCCCCCCCC(=O)N[C@@H](CCCNC(=N)N)C(=O)OCC [LAE lactate],"Log CFU/g, day 7","[1]; day 7, beef loin in linear low density polyethylene film compounded with 1% w/w salt",2.31 Log CFU/g
same,"Log CFU/g, day 14","[1]; day 14, beef loin in linear low density polyethylene film compounded with 1% w/w salt",3.68 Log CFU/g
same,"Log CFU/g, day 21","[1]; day 21, beef loin in linear low density polyethylene film compounded with 1% w/w salt",3.97 Log CFU/g
same,"Log CFU/g, day 28","[1]; day 28, beef loin in linear low density polyethylene film compounded with 1% w/w salt",5.32 Log CFU/g
same,"Log CFU/g, day 42","[1]; day 42, beef loin in linear low density polyethylene film compounded with 1% w/w salt",5.57 Log CFU/g
same,Day 42 % reduction vs. control,[1]; [8],97.9%
same,Day 42 log reduction vs. control,[1]; [8],1.67
same,preservation compared with LAE-HCl,[2]; after the two re-challenges,superior to LAE-HCl
same,"Log Reduction Values, day 0",[2],0
same,"Log Reduction Values, day 2",[2],3.7
same,"Log Reduction Values, day 7",[2],6.0
same,"Log Reduction Values, day 14",[2],6.0
same,"Log Reduction Values, day 21",[2],6.0
same,"Log Reduction Values, day 28",[2],3.9
same,"Log Reduction Values, day 35",[2],4.0
same,"Log Reduction Values, day 42",[2],0.7
"CCCCCCCCCCCC(=O)N[C@@H](CCCNC(=N)N)C(=O)OCC [LAE, N^α-lauroyl-L-arginine ethyl ester]",biocidal ions needed to inhibit or kill microbes,[3],2-128 ppm
CCCCCCCCCCCC(=O)N[C@@H](CCCN=C(N)N)C(=O)OCC.Cl [LAE-HCl],"Log Reduction Values, day 0",[2],0
same,"Log Reduction Values, day 2",[2],4.7
same,"Log Reduction Values, day 7",[2],6.0
same,"Log Reduction Values, day 14",[2],5.8
same,"Log Reduction Values, day 21",[2],6.0
same,"Log Reduction Values, day 28",[2],1.7
same,"Log Reduction Values, day 42",[2],0.0
same,Avg. CFU/g,[4],<1.000E+02 CFU/g
same,% Reduction,[4],99.999%
CC(O)C(=O)O (stereo not drawn) [Lactic acid],"Log Reduction Values, day 2",[2],1.0
same,"Log Reduction Values, day 7",[2],0.2
same,"Log Reduction Values, day 14",[2],0.0
same,"Log Reduction Values, day 35",[2],0.0
same,"Log Reduction Values, day 42",[2],0.0
[H]/N=C(\N/C(=N/[H])NCCCCCCNC(=N)NC(=N)Nc1ccc(Cl)cc1)Nc1ccc(Cl)cc1 [chlorhexidine],biocidal ions needed to inhibit or kill microbes,[3],2-8 ppm
Oc1cc(Cl)ccc1Oc1ccc(Cl)cc1Cl [triclosan],biocidal ions needed to inhibit or kill microbes,[3],2-40 ppm
N^α-lauroyl-L-arginine ethyl ester laurate [LAE laurate],Minimum Inhibitory Concentration,[5],<40 ppm
same,Minimum Inhibitory Concentration,[6],<25 ppm
same,Minimum Inhibitory Concentration,[7],<45 ppm
same,Avg. CFU/g,[4],2.82E+03 CFU/g
same,% Reduction,[4],99.96%
same,performance compared with LAE-HCl,"[4]; after 48 hours, based on the test requirements (>99% reduction)",performed as well as LAE-HCl

# From patent US10226043B2, “Controlled release biocidal salts” (Nevada Naturals Inc., priority 2005, dated 2019)
